Laboratory results reported in patent publication US7713969B2, “Compositions and methods for treatment of cancer” (ArQule, Inc., priority 2005, dated 2010).

Key:
MDA-MB-231 = test: Cell viability MTS assay; type: cell-based, human; conditions: Homo sapiens, MDA-MB-231, 72 hours with compound
How it was run: (§1)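 72 h compound exposure, 0.33% DMSO final; MTS 2 gm/L + PMS 7.67 mg/L final, 4 h; SDS 1.4% final; A490. IC50 vs DMSO-only wells, non-linear regression.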

HT29 = test: Cell viability MTS assay; type: cell-based, human; conditions: Homo sapiens, HT-29, 72 hours with compound
How it was run: as §1

[1] = system: Recombinant Protein Kinase C; test: Protein Kinase C kinase reaction, Histone H1, autoradiography (Example 79); type: biochemical; conditions: 0.05, 0.5, or 10 μM, 15 minutes at room temperature
Procedure: Recombinant Protein Kinase C (Calbiochem) (100 ng) was incubated with (±)-cis-3-(5,6-dihydro-4H-pyrrolo[3,2,1-ij]quinolin-1yl)-4(1H-indol-3-yl)pyrrolidine-2,5-dione or (±)-trans-3-(5,6-dihydro-4H-pyrrolo[3,2,1-ij]quinolin-1-yl)-4(1H-indol-3-yl)pyrrolidine-2,5-dione at 0.05, 0.5, or 10 μM for 15 minutes at room temperature. Subsequently, a radioactive labeling mix in kinase buffer (20 mM Tris-HCl pH 7.5, 10 mM MgCl2) containing 20 μM ATP, 0.2 μCi/μl γ^32P-ATP, 0.2 μg/μl Histone H1 (Upstate) was added to each sample. The kinase reaction was carried out for 5 minutes at room temperature. Reaction products were analyzed by 12% SDS-PAGE and autoradiography.

[2] = system: MDA-MB-231 human breast cancer xenograft; test: MDA-MB-231 xenograft, intraperitoneal 160 mg/kg (Example 81); type: in vivo, mice; conditions: 160 mg/kg intraperitoneally, q3d×10, lipiodol vehicle
Procedure: Athymic female nude mice (CRL:NU/NU-nuBR) were injected subcutaneously in the flank with MDA-MB-231 human breast cancer cells (8×10^6 cells/mouse). Prior to injection, MDA-MB-231 cells were cultured in DMEM (Invitrogen #11965-092) supplemented with 10% (v/v) heat inactivated fetal bovine serum (FBS), 1% Hepes buffer solution (Invitrogen #15630-080) and 1% Penicillin/Streptomycin (Invitrogen #15140-122) at 37° C. in 5% CO2. Tumors were allowed to grow to approximately 50 mm^3 in size. Animals were randomized into three groups of five animals per group. At day ten post injection, mice with established tumors were treated intraperitoneally with (±)-cis-3-(5,6-dihydro-4H-pyrrolo[3,2,1-ij]quinolin-1yl)-4(1H-indol-3-yl) pyrrolidine-2,5-dione (160 mg/kg), (±)-trans-3-(5,6-dihydro-4H-pyrrolo[3,2,1-ij]quinolin-1-yl)-4(1H-indol-3-yl)pyrrolidine-2,5-dione (160 mg/kg) administered in iodinated poppy seed oil (lipiodol) as the vehicle at 10 mg/ml, or vehicle control. Drug or vehicle was administered every three days for a total of ten doses (q3d×10). Tumor size was evaluated periodically during the study. For each subject, tumor volume was calculated using the formula (L×W^2)/2 where L and W were the length and width of the tumor, respectively. The arithmetic mean tumor volume was calculated for each treatment group+/−standard error of the mean (SEM). […]

[3] = system: MDA-MB-231 cells or Paca-2 cells; test: Cell survival in six-well plates, Wright-Giemsa stain (Example 77); type: cell-based; conditions: Homo sapiens; 0.1-2 μM, cultures observed 10-15 days; cell line of the IC50 not stated
Procedure: Exponentially growing MDA-MB-231 cells or Paca-2 cells were seeded at 1,000 cells per well in six-well plates and allowed to attach for 24 hours. MDA-MB-231 and Paca-2 cells were cultured in DMEM supplemented with 10% (v/v) fetal calf serum (FCS) and 5 ml Penicillin/Streptomycin at 37° C. in 5% CO2. MDA-MB-231 and Paca-2 were established estrogen receptor negative human breast cancer and pancreatic carcinoma cell lines, respectively. (±)-cis-3-(5,6-dihydro-4H-pyrrolo[3,2,1-ij]quinolin-1yl)-4(1H-indol-3-yl)pyrrolidine-2,5-dione or (±)-trans-3-(5,6-dihydro-4H-pyrrolo[3,2,1-ij]quinolin-1-yl)-4(1H-indol-3-yl)pyrrolidine-2,5-dione were each dissolved at a concentration of 10 mM in DMSO, and separately added to cells at a concentration of 0.1, 0.25, 0.5, 1 or 2 μM. Control plates received DMSO alone, at the same percentage of total culture volume as that administered in conjunction with the highest concentration of drug. Cell cultures were observed daily for 10-15 days, then fixed and stained with modified Wright-Giemsa stain (Sigma). Treatment with (±)-cis-3-(5,6-dihydro-4H-pyrrolo [3,2,1-ij]quinolin-1yl)-4(1H-indol-3-yl)pyrrolidine-2,5-dione or (±)-trans-3-(5,6-dihydro-4H-pyrrolo[3,2,1-ij]quinolin-1-yl)-4(1H-indol-3-yl)pyrrolidine-2,5-dione results in cell death of MDA-MB-231 cells or Paca-2 cells. See, e.g., FIG. 2.

[4] = system: MDA-MB-231 human breast cancer xenograft; test: MDA-MB-231 xenograft, intraperitoneal 80 mg/kg (Example 82); type: in vivo, mice; conditions: 80 mg/kg intraperitoneally, 5 days on/2 off, four cycles, DMA/PEG 400
Procedure: Athymic female nude mice (CRL:NU/NU-nuBR) were injected subcutaneously in the flank with MDA-MB-231 human breast cancer cells (8×10^6 cells/mouse). Prior to injection, MDA-MB-231 cells were cultured in DMEM (Invitrogen #11965-092) supplemented with 10% (v/v) heat inactivated fetal bovine serum (FBS), 1% Hepes buffer solution (Invitrogen #15630-080) and 1% Penicillin/Streptomycin (Invitrogen #15140-122) at 37° C. in 5% CO2. Tumors were allowed to grow to approximately 50 mm^3 in size. Animals were randomized into three groups of eight animals per group. At day four post injection, mice with established tumors were treated intraperitoneally with (±)-Cis-3-(5,6-dihydro-4H-pyrrolo[3,2,1-ij]quinolin-1yl)-4(1H-indol-3-yl)pyrrolidine-2,5-dione (80 mg/kg), (±)-Trans-3-(5,6-dihydro-4H-pyrrolo[3,2,1-ij]quinolin-1-yl)-4(1H-indol-3-yl)pyrrolidine-2,5-dione (80 mg/kg) administered in DMA/PEG 400 (1:4 v/v) as the vehicle at 50 mg/ml, or vehicle control intraperitoneally. […] Tumor size was evaluated periodically during the study. For each subject, tumor volume was calculated using the formula (L×W^2)/2 where L and W were the length and width of the tumor, respectively. The arithmetic mean tumor volume was calculated for each treatment group+/−standard error of the mean (SEM). […]

IC50 (MDA-MB-231): 4040 nM
IC50 (HT29): 2890 nM
Protein Kinase C kinase activity in comparison to carrier alone [1]: did not reduce kinase activity
Compound: O=C1NC(=O)[C@@H](c2cn3c4c(cccc24)CCC3)[C@H]1c1c[nH]c2ccccc12 (racemic) [(±)-Cis-3-(5,6-dihydro-4H-pyrrolo[3,2,1-ij]quinolin-1-yl)-4(1H-indol-3-yl)pyrrolidine-2,5-dione]
reduction of normalized mean tumor volume compared to vehicle treated control [2]: 80.5%
IC50 [3]: 500 nM
reduction of mean tumor volume compared to vehicle treated control [4]: 73.4%
